For this experiment, the target named is T1, F508delCFTR (Homo sapiens, UniProt P13569, DEL508-508).
T1 construct: expressed in transfected cells; host or cells: CFBE41o- (human lung derived epithelial cell line), doxycycline-inducible
Briefly: Cell Surface Expression-Horse Radish Peroxidase (CSE-HRP) assay. As to conditions: CFBE41o-F508delCFTR-HRP cells; for EC50: F508delCFTR cell surface expression, luminescence, 18-24 hours at 33° C., highest concentration 20 μM; for Maximum % activity: maximum at any tested concentration, normalized to on-plate positive control (3 μM). The class given is cell-based. From the text:
Cell Surface Expression-Horse Radish Peroxidase (CSE-HRP) Assay:
A cellular assay for measuring the F508delCFTR cell surface expression after correction with test compounds was developed in human lung derived epithelial cell line (CFBE41o-) (Veit G et al, (2012) Mol Biol Cell. 23(21): 4188-4202). This was achieved by expressing the F508delCFTR mutation along with a horseradish peroxidase (HRP) in the fourth exofacial loop and then measuring the HRP activity using luminescence readout from these cells, CFBE41o-F508delCFTR-HRP, that were incubated overnight with the test corrector compounds. Briefly, for this primary assay, the CFBE41o-F508delCFTR-HRP cells were plated in 384-well plates (Greiner Bio-one; Cat 781080) at 4,000 cells/well along with 0.5 μg/mL doxycycline to induce the F508delCFTR-HRP expression and further incubated at 37° C., 5% CO2 for 72 hours. The test compounds were then added at the required concentrations and further incubated for 18-24 hours at 33° C. The highest concentration tested was 20 μM with an 8-point concentration response curve using a 3-fold dilution. Three replicate plates were run to determine one EC50. All plates contained negative controls (dimethyl sulfoxide, DMSO) and positive controls (3 μM of 3-[(2R,4R)-4-({[1-(2,2-difluoro-1,3-benzodioxol-5-yl)cyclopropyl]carbonyl}amino)-7-methoxy-3,4-dihydro-2H-chromen-2-yl]benzoic acid) as well as on-plate concentration response of the positive control. Post incubation, the plates were washed 5× times with Dulbecco's phosphate buffered saline (DPBS), followed by the addition of the HRP substrate, luminol (50 μL), and measuring the HRP activity using luminescence readout on EnVision® Multilabel Plate Reader (Perkin Elmer; product number 2104-0010). The raw counts from the experiment are analyzed using Accelrys® Assay Explorer v3.3.
Z′ greater than 0.5 was used as passing quality control criteria for the plates.
The Z′ is defined as: 1−[3*SDPositive Control+3*SDNegative Control/Absolute(MeanPositive Control−MeanNegative Control)] wherein “SD” is standard deviation.
The % activity measured at each of the 8 test concentrations of the test compound was normalized to the on-plate positive control using the following formula: % activity=[(test compound response−DMSO response)/(positive control response−DMSO response)]*100
The maximum % activity achieved for the test compound at any tested concentration is presented in Table 1 along with the EC50 calculated using the following general sigmoidal curve with variable Hill slope equation (described as Model 42 in the Accelrys® Assay Explorer v3.3 software): y=(a−d)/(1+(x/c)^b)+d
General sigmoidal curve with concentration, response, top, bottom, EC50 and Hill slope.
This model describes a sigmoidal curve with an adjustable baseline, a. The equation can be used to fit curves where response is either increasing or decreasing with respect to the independent variable, “x”. • “x” is a concentration of drug under test. • “y” is the response. • “a” is the maximum response, and “d” is the minimum response • “c” is the inflection point (EC50) for the curve. That is, “y” is halfway between the lower and upper asymptotes when x=c. • “b” is the slope-factor or Hill coefficient. The sign of b is positive when the response increases with increasing dose and is negative when the response decreases with increasing dose (inhibition).

Broadly, the EC50 is the concentration at which the effect is half-maximal. Higher therefore signals a less potent agent.

T1 sequence (P13569 with tags, fused parts or gaps DEL508-508): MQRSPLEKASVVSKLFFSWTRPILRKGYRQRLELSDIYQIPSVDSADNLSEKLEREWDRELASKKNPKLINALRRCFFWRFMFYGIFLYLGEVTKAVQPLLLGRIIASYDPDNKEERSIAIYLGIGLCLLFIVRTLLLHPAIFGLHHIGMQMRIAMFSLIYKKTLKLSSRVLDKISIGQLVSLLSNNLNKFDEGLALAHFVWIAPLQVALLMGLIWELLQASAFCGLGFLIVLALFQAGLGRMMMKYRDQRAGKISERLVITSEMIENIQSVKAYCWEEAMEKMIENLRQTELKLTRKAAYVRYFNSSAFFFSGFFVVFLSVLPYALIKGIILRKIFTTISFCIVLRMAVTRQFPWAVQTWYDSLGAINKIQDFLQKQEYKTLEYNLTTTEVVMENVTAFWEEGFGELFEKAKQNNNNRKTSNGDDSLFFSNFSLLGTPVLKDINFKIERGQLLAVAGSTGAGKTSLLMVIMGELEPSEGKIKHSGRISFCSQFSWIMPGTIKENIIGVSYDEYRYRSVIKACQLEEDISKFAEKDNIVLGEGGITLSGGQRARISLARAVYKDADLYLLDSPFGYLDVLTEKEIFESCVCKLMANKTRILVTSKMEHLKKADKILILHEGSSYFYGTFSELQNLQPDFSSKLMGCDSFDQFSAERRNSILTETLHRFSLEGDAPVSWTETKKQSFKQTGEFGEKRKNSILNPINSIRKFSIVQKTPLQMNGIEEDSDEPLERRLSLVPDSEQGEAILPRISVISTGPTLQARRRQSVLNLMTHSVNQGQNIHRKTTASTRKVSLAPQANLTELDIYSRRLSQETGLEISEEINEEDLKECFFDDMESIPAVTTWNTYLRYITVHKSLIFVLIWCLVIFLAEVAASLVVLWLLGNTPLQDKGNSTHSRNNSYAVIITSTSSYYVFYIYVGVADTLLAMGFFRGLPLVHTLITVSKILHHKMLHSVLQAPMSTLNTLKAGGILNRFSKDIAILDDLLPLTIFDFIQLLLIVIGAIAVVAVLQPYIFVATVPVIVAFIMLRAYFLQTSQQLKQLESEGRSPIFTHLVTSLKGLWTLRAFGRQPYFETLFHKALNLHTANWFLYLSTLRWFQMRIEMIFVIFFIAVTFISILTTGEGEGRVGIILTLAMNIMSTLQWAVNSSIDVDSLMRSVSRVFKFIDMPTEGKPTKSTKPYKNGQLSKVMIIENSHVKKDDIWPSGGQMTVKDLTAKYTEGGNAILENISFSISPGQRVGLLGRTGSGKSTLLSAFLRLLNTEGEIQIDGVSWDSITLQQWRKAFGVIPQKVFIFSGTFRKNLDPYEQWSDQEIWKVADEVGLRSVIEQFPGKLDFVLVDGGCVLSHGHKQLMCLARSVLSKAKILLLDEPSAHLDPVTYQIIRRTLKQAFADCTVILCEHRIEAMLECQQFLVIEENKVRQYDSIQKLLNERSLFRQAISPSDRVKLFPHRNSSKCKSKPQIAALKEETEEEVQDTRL

With `COc1ccc2c(c1)OC(c1ccc(OC)c(OC)c1)CC2NC(=O)C1(c2ccc(F)c(F)c2)CCC1` (centres unmarked) [Example 17, 1-(3,4-difluorophenyl)-N-[2-(3,4-dimethoxyphenyl)-7-methoxy-3,4-dihydro-2H-1-benzopyran-4-yl]cyclobutane-1-carboxamide], the concentration for a half-maximal effect (EC50) amounted to 3320 nM and the Maximum % activity was 27.6%.

Take `COc1ccc2c(c1)OC(c1ccc(OC)c(OC)c1)CC2NC(=O)C(C)(C)Oc1ccc(Cl)cc1` (centres unmarked) [Example 18, 2-(4-chlorophenoxy)-N-[2-(3,4-dimethoxyphenyl)-7-methoxy-3,4-dihydro-2H-1-benzopyran-4-yl]-2-methylpropanamide]: the EC50 was > 20000 nM and the Maximum % activity was 5.5%.

`COc1ccc2c(c1)OC(c1ccc(OC)c(OC)c1)CC2NC(=O)C1(c2cccc(F)c2)CC1` (centres unmarked) [Example 19, N-[2-(3,4-dimethoxyphenyl)-7-methoxy-3,4-dihydro-2H-1-benzopyran-4-yl]-1-(3-fluorophenyl)cyclopropane-1-carb oxamide] showed a 50% effective concentration (EC50) of 1270 nM and a Maximum % activity of 40.8%.

On to `COc1ccc2c(c1)OC(c1ccc(OC)c(OC)c1)CC2NC(=O)C1(c2ccc(F)cc2)CC1` (centres unmarked) [Example 20, N-[2-(3,4-dimethoxyphenyl)-7-methoxy-3,4-dihydro-2H-1-benzopyran-4-yl]-1-(4-fluorophenyl)cyclopropane-1-carb oxamide], for which it took 890 nM to reach a half-maximal effect (EC50) and the Maximum % activity turned out to be 51.1%.

In turn, `COc1ccc2c(c1)OC(c1ccc(OC)c(OC)c1)CC2NC(=O)C1(c2ccc(Cl)cc2)CC1` (centres unmarked) [Example 21, 1-(4-chlorophenyl)-N-[2-(3,4-dimethoxyphenyl)-7-methoxy-3,4-dihydro-2H-1-benzopyran-4-yl]cyclopropane-1-carboxamide] yielded an EC50 of 1140 nM and a Maximum % activity of 77.8%.

`COc1ccc2c(c1)OC(c1ccc(OC)c(OC)c1)CC2NC(=O)C(C)(C)c1ccc(Cl)cc1` (centres unmarked) [Example 22, 2-(4-chlorophenyl)-N-[2-(3,4-dimethoxyphenyl)-7-methoxy-3,4-dihydro-2H-1-benzopyran-4-yl]-2-methylpropanamide] registered an EC50 of 990 nM and a Maximum % activity of 56.6%.

As to `COc1ccc(C(C)(C)C(=O)NC2CC(c3ccc(OC)c(OC)c3)Oc3cc(OC)ccc32)cc1` (centres unmarked) [Example 23, N-[2-(3,4-dimethoxyphenyl)-7-methoxy-3,4-dihydro-2H-1-benzopyran-4-yl]-2-(4-methoxyphenyl)-2-methylpropanamide], the EC50 was 230 nM and the Maximum % activity came out at 54.0%.

`COc1ccc(C(C)(C)C(=O)N[C@H]2C[C@H](c3cccc(C(=O)O)c3)Oc3cc(OC)ccc32)cc1` [Example 24, 3-{(2R,4S)-7-methoxy-4-[2-(4-methoxyphenyl)-2-methylpropanamido]-3,4-dihydro-2H-1-benzopyran-2-yl}benzoic acid] displayed an EC50 of 1160 nM and a Maximum % activity of 38.3%.

Turning to `COc1ccc(C(C)(C)C(=O)N[C@@H]2C[C@H](c3cccc(C(=O)O)c3)Oc3cc(OC)ccc32)cc1` [Example 25, 3-{(2R,4R)-7-methoxy-4-[2-(4-methoxyphenyl)-2-methylpropanamido]-3,4-dihydro-2H-1-benzopyran-2-yl}benzoic acid], the half-maximal effective concentration (EC50) was determined as 230 nM and the Maximum % activity was determined as 39.5%.

Take `C[C@]1(C(=O)N[C@@H]2C[C@H](c3cccc(C(=O)O)c3)Oc3ccccc32)Cc2cc(Cl)ccc2O1` [Example 26, 3-[(2R,4R)-4-{[(2R)-5-chloro-2-methyl-2,3-dihydro-1-benzofuran-2-carbonyl]amino}-3,4-dihydro-2H-1-benzopyran-2-yl]benzoic acid]: the EC50 was > 20000 nM and the Maximum % activity is on record as 1.6%.

Consider `C[C@@]1(C(=O)N[C@@H]2C[C@H](c3cccc(C(=O)O)c3)Oc3ccccc32)Cc2cc(Cl)ccc2O1` [Example 27, 3-[(2R,4R)-4-{[(2S)-5-chloro-2-methyl-2,3-dihydro-1-benzofuran-2-carbonyl]amino}-3,4-dihydro-2H-1-benzopyran-2-yl]benzoic acid], for which the 50% effective concentration (EC50) was > 20000 nM and the Maximum % activity was 7.9%.

With `COC(=O)c1cccc([C@H]2C[C@@H](NC(=O)[C@]3(C)CCc4cc(OC)ccc43)c3ccccc3O2)c1` [Example 28, methyl 3-[(2R,4R)-4-{[(1R)-5-methoxy-1-methyl-2,3-dihydro-1H-indene-1-carbonyl]amino}-3,4-dihydro-2H-1-benzopyran-2-yl]benzoate], the EC50 turned out to be 2490 nM and the Maximum % activity is listed as 21.2%.

For `COC(=O)c1cccc([C@H]2C[C@@H](NC(=O)[C@]3(C)CCc4cc(OC)ccc43)c3ccc(OC)cc3O2)c1` [Example 29, methyl 3-[(2R,4R)-7-methoxy-4-{[(1R)-5-methoxy-1-methyl-2,3-dihydro-1H-indene-1-carbonyl]amino}-3,4-dihydro-2H-1-benzopyran-2-yl]benzoate], it took 1440 nM to reach a half-maximal effect (EC50) and the Maximum % activity came to 37.8%.

As to `COC(=O)c1cccc([C@H]2C[C@@H](NC(=O)[C@@]3(C)CCc4cc(OC)ccc43)c3ccccc3O2)c1` [Example 30, methyl 3-[(2R,4R)-4-{[(1S)-5-methoxy-1-methyl-2,3-dihydro-1H-indene-1-carbonyl]amino}-3,4-dihydro-2H-1-benzopyran-2-yl]benzoate], a half-maximal effect (EC50) was put at 960 nM and the Maximum % activity was determined as 48.4%.

Molecule `COC(=O)c1cccc([C@H]2C[C@@H](NC(=O)[C@@]3(C)CCc4cc(OC)ccc43)c3ccc(OC)cc3O2)c1` [Example 31, methyl 3-[(2R,4R)-7-methoxy-4-{[(1S)-5-methoxy-1-methyl-2,3-dihydro-1H-indene-1-carbonyl]amino}-3,4-dihydro-2H-1-benzopyran-2-yl]benzoate] yielded an EC50 of 400 nM and a Maximum % activity of 63.6%.

For `COc1ccc2c(c1)CC[C@@]2(C)C(=O)N[C@@H]1C[C@H](c2cccc(C(=O)O)c2)Oc2ccccc21` [Example 32, 3-[(2R,4R)-4-{[(1R)-5-methoxy-1-methyl-2,3-dihydro-1H-indene-1-carbonyl]amino}-3,4-dihydro-2H-1-benzopyran-2-yl]benzoic acid], the EC50 was 1210 nM and the Maximum % activity stood at 20.4%.

With `COc1ccc2c(c1)CC[C@@]2(C)C(=O)N[C@@H]1C[C@H](c2cccc(C(=O)O)c2)Oc2cc(OC)ccc21` [Example 33, 3-[(2R,4R)-7-methoxy-4-{[(1R)-5-methoxy-1-methyl-2,3-dihydro-1H-indene-1-carbonyl]amino}-3,4-dihydro-2H-1-benzopyran-2-yl]benzoic acid], the half-maximal effective concentration (EC50) was 270 nM and the Maximum % activity is listed as 25.9%.

`COc1ccc2c(c1)CC[C@]2(C)C(=O)N[C@@H]1C[C@H](c2cccc(C(=O)O)c2)Oc2ccccc21` [Example 34, 3-[(2R,4R)-4-{[(1S)-5-methoxy-1-methyl-2,3-dihydro-1H-indene-1-carbonyl]amino}-3,4-dihydro-2H-1-benzopyran-2-yl]benzoic acid]: the EC50 is 410 nM and the Maximum % activity is listed as 52.6%.

The molecule `COc1ccc2c(c1)CC[C@]2(C)C(=O)N[C@@H]1C[C@H](c2cccc(C(=O)O)c2)Oc2cc(OC)ccc21` [Example 35, 3-[(2R,4R)-7-methoxy-4-{[(1S)-5-methoxy-1-methyl-2,3-dihydro-1H-indene-1-carbonyl]amino}-3,4-dihydro-2H-1-benzopyran-2-yl]benzoic acid] returned an EC50 of 200 nM and a Maximum % activity of 57.5%.
